Like-named read-outs stand apart in the source and are kept apart here. Marks after values point to notes of the source that are not given here.
Assays:
cAMP [1] = experiment: cAMP content in rabbit blood platelets; assay type: in vivo; conditions: per mg protein; Aminophylline 0.6 mg/kg, DSP 1.0 mg/kg
Description: • 5. Effects on cAMP content in rabbit blood platelets. cAMP content is tested by radioimmunoassay. Protein content is measured by the Hartree Method.

cAMP [2] = experiment: cAMP content in rat blood plasma; assay type: in vivo; conditions: Aminophylline 30 mg/kg, DSP 50 mg/kg
Description: • 6. Effects on cAMP content in rat blood plasma. Blood cAMP content was tested by radioimmunoassay.

serum lipoprotein = experiment: High-fats rabbits: lipoprotein in blood serum; assay type: in vivo; conditions: DSP 4 g/kg/day, Simvastatin 1 mg/kg/day
Description: (1) Normal control group (8 rabbits) normal feeding; (2) High-fats group: High-fats feeding. All were fed for 4 weeks. Weight and lipoprotein in the blood were measured. […] High-fats control group, 2. High-dosage of DSP group (4 g dosage/kg/day), 3. […] All are given distilled water except those with special prescriptions and ends after 12 weeks testing.

aorta AS = experiment: High-fats rabbits: aortic lesion and lipoprotein content in aorta; assay type: in vivo; conditions: 8 weeks, DSP 4 g/kg/Day, Simvastatin 1 mg/kg/Day
Description: (§1) 1.1 Experimental Groups. (1) Normal control group (8 rabbits) normal feeding; (2) High-fats group: High-fats feeding. All were fed for 4 weeks. Weight and lipoprotein in the blood were measured. The high-fats group was divided into 4 sub-groups (12 rabbits in each sub-group). 1. High-fats control group, 2. High-dosage of DSP group (4 g dosage/kg/day), 3. Low-dosage DSP group (2 g dosage/kg/day), and 4. […] All are given distilled water except those with special prescriptions and ends after 12 weeks testing.
1.2 Experimental Methods and Standards. (1) Examination of Aortic Lesion. Drugs were given to the animals for 8 weeks, and then the animals were killed. The aortas were removed and the unnecessary membranes and fats discarded. The aortas were cut open along the mid line. One-fifth of the aorta was removed for lipid examination. […] The percentage of the lesion part was calculated, and a grading was given. […] The average thickness of the interior membrane spot plates was measured by microscopic parameter. […] The number of blood vessels with spot plates in the coronary artery and the lesion percentage (lesion percentage=the number of blood vessels with lesion/the total number of blood vessels in each transect X100%) were observed, calculated and graded according to the blocking of the blood vessels with spot plates. The average points were calculated by accumulation.

liver TG = experiment: High-fats rabbits: liver TG and liver coefficient; assay type: in vivo; conditions: DSP 4 g/kg, Simvastatin 1 mg/kg
Description: as §1

SOD, MDA = experiment: High-fats rabbits: SOD activity and MDA content in blood serum and liver; assay type: in vivo; conditions: 8 weeks, DSP 4 g raw medicine/kg/d, Simvastatin 1 mg/kg/d
Description: Method. The experimental groups were divided into: (1) Normal control group. Normal feeding; (2) High-fats feeding group: high-fats feeding.
All were fed for 4 weeks. weight and lipoprotein content in the blood were measured. […] Medicine was given to the rabbits through the stomach, according to prescription. The same volume of distilled water was given to the normal control group and high-fats feeding group. Testing ended after 12 weeks.

blood stasis = experiment: Blood flow (Hb, Lb, P, air flow), DSP vs aspirin; assay type: in vivo, human; design: unit not given here
From the text: Hemorrhage at the atherosclerotic lesions induces platelet activation, coronary thrombosis and blood stasis resulting in impaired blood flow. Thus to improve blood flow, chronic administration of the platelet-activation inhibitor aspirin is recommended for patients with angina. The efficacy of DSP and aspirin improving blood flow was compared by evaluating [Hb, Lb, P and air flow]. DSP improves blood flow as efficiently as aspirin. […].

thrombosis = experiment: Experimental thrombosis in rats (Umetsu method); assay type: in vivo; conditions: experimental thrombo-formation
From the text: • 3. Effects on experimental thrombosis in rats. The Umetsu method is used to carry out the experiment.

arterial IMT = experiment: Hyperlipidemia, DSP vs aspirin: arterial IMT; assay type: in vivo, human
Description: (§2) 1.1 Sample. 53 patients were divided into 2 groups, at random: 25 patients in Treatment group (DSP group), and 28 patients in Control group (aspirin group).
(§3) The medication lasted for 6 months. 50 mg enteric aspirin was given to the Control group, 1 time/day orally.
(§4) 1.3 Standard. a) Measurement of IMT (Arterial tunica intima-tunica media). The horizontal and vertical transactions of the whole-length aorta, carotis communis, exterior artery, and subclavial artery were checked 1, 2, 3, and 6 months after treatment. The thickest part of the IMT was measured and recorded. b) Blood flow included whole blood high-viscosity (hHb), whole blood low-viscosity (hLb), plasma viscosity (hP), Aggregation Index of Red blood cells (AIR) etc. c) Measurement of blood lipoprotein included Total blood Cholesterol (TC) and Triglycerides (TG). D) Statistical treatment by matching t statistic testing.

blood viscosity = experiment: Hyperlipidemia, DSP vs aspirin: blood flow; assay type: in vivo, human
Description: as §2, §3, §4

cardiac arrhythmia = experiment: Cardiac arrhythmia caused by exogenous free radicals, Langendorff rat heart; design: species or system Wistar rat; conditions: 1 mg/L verapamil; 50 mg/L DSP; free radicals alone 100%
Description: Langendorff perfusion device was used to pour ferrous sulfate (0.25 mmol/L)/citrate (1.0 mmol/L) into the Wistar rat's artificial heart. The model of free radicals causing heart rhythm irregularity was replicated to observe the effects of DSP.
(1) Blank group (Normal control). Reperfused with perfusion solution for 45 mins continuously. The change in electrocardiographic pattern was observed.
(2) SP group. DSP was added in 50 mg/L of perfusion solution and perfused for 45 mins continuously. The change in electrocardiographic pattern was observed.
(3) Free-radical-damaging group (Free radicals). After pre-perfusing the artificial heart for 15 mins, it was reperfused with perfusion solution containing ferrous sulfate (0.25 mmol/L)/citrate (1.0 mmol/L) for 30 mins continuously. The change in electrocardiographic pattern was observed.
(4) DSP-protected group (DSP+free radicals): DSP was added into 50 mg/L of perfusion solution and pre-perfused for 15 mins. Ferrous sulfate (0.25 mmol/L/citrate (1.0 mmol/L) was added to the perfusion solution and then infuse for 30 mins continuously. The change in electrocardiographic pattern was observed.
(5) Verapamil-protected group (verapamil+free radicals). […] of verapamil was added to the perfusion solution and preperfused for 15 mins. […]

## Cn1c(=O)c2[nH]cnc2n(C)c1=O [Aminophylline]
cAMP [1]
  cAMP content in rabbit platelets: 15.4 ± 3.9 pmol/mg
cAMP [2]; 30 min after treatment
  blood plasma cAMP content: 20.7 ± 3.2 Pmol/ml plasma
cAMP [2]; 60 min after treatment
  blood plasma cAMP content: 21.1 ± 3.8 Pmol/ml plasma

## CCOC(=O)C1=C(COCCN)NC(C)=C(C(=O)OC)C1c1ccccc1Cl (centres unmarked) [Amlodipine]
Plasma ET; after treatment (4 weeks)
  Plasma ET: 42.6 ± 4.78 ng/L
Plasma ET; before treatment
  Plasma ET: 57.2 ± 7.31 ng/L
insulin; 60 min, after treatment
  Blood glucose: 9.76 ± 0.52 mmol
  Blood insulin: 121.65 ± 1.89 mU/L
insulin; 60 min, before treatment
  Blood glucose: 9.86 ± 0.65 mmol
  Blood insulin: 122.01 ± 1.91 mU/L
insulin; 120 min, after treatment
  Blood glucose: 8.01 ± 0.76 mmol
  Blood insulin: 92.56 ± 1.66 mU/L
insulin; 120 min, before treatment
  Blood glucose: 7.69 ± 0.81 mmol
  Blood insulin: 91.62 ± 1.96 mU/L
insulin; Empty, after treatment
  Blood glucose: 5.27 ± 0.59 mmol
  Blood insulin: 25.31 ± 1.73 mU/L
insulin; Empty, before treatment
  Blood glucose: 5.19 ± 0.56 mmol
  Blood insulin: 25.34 ± 1.74 mU/L

## CCC(C)(C)C(=O)O[C@H]1C[C@@H](C)C=C2C=C[C@H](C)[C@H](CC[C@@H]3C[C@@H](O)CC(=O)O3)[C@H]21 [Simvastatin]
Serum lipoprotein; 2 weeks after dosage
  LDC-C, blood serum: 19.54 ± 5.71 mmol/L
  TC, blood serum: 27.06 ± 4.46 mmol/L
  TC/HDL-C, blood serum: 32.29 ± 7.39
  TG, blood serum: 1.85 ± 0.55 mmol/L
  VLDC-C, blood serum: 6.66 ± 1.65 mmol/L
Serum lipoprotein; 4 weeks after dosage
  LDC-C, blood serum: 18.22 ± 3.37 mmol/L
  TC, blood serum: 26.1 ± 3.03 mmol/L
  TC/HDL-C, blood serum: 19.6 ± 4.38
  TG, blood serum: 1.80 ± 0.31 mmol/L
  VLDC-C, blood serum: 6.54 ± 0.74 mmol/L
Serum lipoprotein; 8 weeks after dosage
  LDC-C, blood serum: 17.78 ± 5.69 mmol/L
  TC, blood serum: 26.3 ± 4.40 mmol/L
  TC/HDL-C, blood serum: 22.3 ± 6.54
  TG, blood serum: 2.70 ± 0.77 mmol/L
  VLDC-C, blood serum: 7.30 ± 2.05 mmol/L
Serum lipoprotein; A/fter dosage
  LDC-C, blood serum: 19.69 ± 8.33 mmol/L
  TC, blood serum: 26.92 ± 7.72 mmol/L
  TC/HDL-C, blood serum: 31.68 ± 10.14
  TG, blood serum: 2.04 ± 1.00 mmol/L
  VLDC-C, blood serum: 6.35 ± 1.42 mmol/L
Serum lipoprotein; B/f testing
  LDC-C, blood serum: 0.87 ± 0.21 mmol/L
  TC, blood serum: 2.27 ± 0.18 mmol/L
  TC/HDL-C, blood serum: 2.72 ± 0.85
  TG, blood serum: 0.72 ± 0.15 mmol/L
  VLDC-C, blood serum: 0.51 ± 0.27 mmol/L
Aorta AS
  TC content in aorta: 4.93 ± 2.62
Liver TG
  Liver Coefficient: 5.16 ± 0.60 g/100 g weight
SOD, MDA
  MDA, blood serum: 5.63 ± 1.30 nmol/mL
  SOD, Liver: 11.62 ± 0.38*** 10^3 u/g tissue weight
  SOD, blood serum: 816.7 ± 77.2 u/ml

## CC(=O)Oc1ccccc1C(=O)O [aspirin]
Blood stasis; Post-
  Air flow: 1.40 ± 0.10
  Hb: 4.28 ± 1.07
  LB: 8.21 ± 0.3
  P: 1.67 ± 0.7
Blood stasis; Pre-
  Air flow: 1.82 ± 0.17
  LB: 10.38 ± 1.96
  P: 1.89 ± 0.12
Blood stasis; Pre-, 25 patients DSP, 28 aspirin
  Hb: 6.12 ± 1.56
thrombosis; Aspirin 30, DSP 50
  Average aggregation percentage: 10.6 ± 2.1
thrombosis; Aspirin 30, DSP 50 (head: g/kg)
  Inhibition %: 49.2%
Arterial IMT; after treatment (6 months)
  IMT: 2.1 ± 0.7 mm
Arterial IMT; before treatment
  IMT: 2.0 ± 0.8 mm
Blood viscosity; after treatment (6 months)
  AIR: 1.40 ± 0.10
  η Hb: 4.28 ± 1.07 mpa · s
  η Lb: 8.21 ± 1.03 mpa · s
  η P: 1.67 ± 0.07 mpa · s
Blood viscosity; before treatment
  AIR: 1.82 ± 0.17
  η Hb: 6.12 ± 1.56 mpa · s
  η Lb: 10.38 ± 1.96 mpa · s
  η P: 1.89 ± 0.12 mpa · s

## COc1ccc(CCN(C)CCCC(C#N)(c2ccc(OC)c(OC)c2)C(C)C)cc1OC (centres unmarked) [verapamil]
Cardiac arrhythmia
  cardiac arrhythmia (irregularity) percentage: 71.4%

From US8486464B2, “Herbal composition for angina pectoris, method to prepare same and uses thereof” (Tasly Pharmaceutical Group Co. Ltd., priority 2000, dated 2013)
